Tested on: surface receptors of the a-yeast strain
Experiment: Shmoo effect positive control with purified α-factor
Format: cell-based, Saccharomyces cerevisiae
Settings: BY4741 MATa p423GPD-AR1, p426PGK-MFα1; purified α-factor added
Protocol: The recognition of the α-factor (yeast pheromone) by surface receptors effects inter alia a directed growth (shmoo effect) of the yeast cells toward the source of the pheromone. Under natural conditions this serves for subsequent fusion with the yeast cell of the opposite mating type.
To the positive control purified α-factor is added. […] Based on this control, the androgen-independent induction of the yeast cells can be checked.

α-factor
directed growth (shmoo effect) of the yeast cells: Directed growth of the yeast cells is observed
